Test results reported in patent US11911356B2, “Regulation of mutant TERT by BRAF V600E/map kinase pathway through FOS/GABP in human cancer” (THE JOHNS HOPKINS UNIVERSITY, priority 2017, dated 2024).

Columns and labels:
[1] = tested on: K1 cells xenograft tumors; assay: Xenograft tumorigenicity assay; assay type: in vivo; conditions: K1 xenograft in nude mice
Source text: FIG. 1A-1G. Cooperative role of BRAF V600E and TERT in the oncogenic behavior and tumor growth of cancer cells. Specific shRNA against BRAF and siRNA against TERT were used to knock down BRAF and TERT in the indicated cancer cells, respectively, followed by performance of assays of MTT of cell proliferation (FIG. 1A), transwell cell migration (FIG. 1B), cell invasion (FIG. 1C), and colony formation in soft agar (FIG. 1D) (with representative images shown in the left panel and the average colony numbers in the right panel). Western blotting analysis of TERT and phosphorylation of ERK (p-ERK) was performed for K1 cells (FIG. 1E), from which xenograft tumors were derived to test the role of TERT and BRAF V600E in tumor development and growth (FIG. 1F, FIG. 1G). […] The “Control” in FIG. 1A-1D represented the combination of scramble shRNA and Control siRNA. […] The red horizontal bar on the left of FIG. 1D represents 100 μm; colonies larger than this size were counted and colony numbers are shown on the right of the panel. […]
All animal experiments were approved and performed according to the guidelines of the Institutional Animal Care and Use Committee (IACUC) of Johns Hopkins University. […] Tumor size was measured twice a week on the skin surface of the animal using a caliper and tumor volume was calculated using the formula (width^2×length)/2 as previously described. […]

[2] = tested on: MEK and ERK phosphorylation; conditions: wild-type BRAF cells; previous finding (refs 28, 29); cited from earlier work

CCCS(=O)(=O)Nc1ccc(F)c(C(=O)c2c[nH]c3ncc(-c4ccc(Cl)cc4)cc23)c1F [PLX4032]
tumor growth ([1]; 10 mg/kg PLX4032 daily by oral gavage): inhibited tumor growth | tumor growth ([1]; PLX4032 10 mg/kg daily combined with stable TERT knockdown (shTERT)): nearly completely abolished tumor growth | MEK and ERK phosphorylation [2]: induced MEK and ERK phosphorylation
